# In patent US20070072246A1, “Cell-based assays for determining drug action” (priority 2003, published 2007):
# Where two headings read alike, the source gives them in different places.
# B1: IL-10: Recombinant human IL-10 (protein, UniProt P22301 19-178, looked up)
# Interleukin-10: SPGQGTQSENSCTHFPGNLPNMLRDLRDAFSRVKTFFQMKDQLDNLLLKESLLEDFKGYLGCQALSEMIQFYLEEVMPQAENQDPDIKAHVNSLGENLKTLRLRLRRCHRFLPCENKSKAVEQVKNAFNKLQEKGIYKAMSEFDIFINYIEAYMTMKIRN
# Assays:
# [1] = system: PBMC and endothelial cell co-culture; experiment: SAg system: PBMC and endothelial cell co-culture stimulated with superantigen; assay type: cell-based, human
# [2] = system: primary human endothelial cells (EC); experiment: 3C system: endothelial cells stimulated with IL-1β, TNF-α and IFN-γ, readout parameters by cell-based ELISA; conditions: 24 hr cytokine activation; non-toxic concentrations
# Procedure: Cell culture. Human umbilical vein endothelial cells (HUVEC) were obtained from Cascade Biologics (Portland, Oreg.) and cultured in EGM-2 medium containing supplements provided by the manufacturer and 2% heat inactivated fetal bovine serum (Hyclone, Logan, Utah) and subcultured with 0.05% trypsin-0.53 mM EDTA (Mediatech, Herndon, Va.) as described by the manufacturer. […] Experiments were performed by culturing HUVEC in microtiter plates (Falcon; BD Biosciences), in the presence of cytokines (IL-1β, 1 ng/ml; TNF-α, 5 ng/ml; and IFN-γ, 100 ng/ml), activators (SAg, 20 ng/ml or LPS, 0.2 ng/ml), and/or PBMC (7.5×10^4) for the indicated times. Drugs were added 1 hr before stimulation and were present during the whole 24 hr stimulation period.
# Cell-based ELISAs. […] Briefly, microtiter plates containing treated and stimulated HUVEC (or HUVEC/PBMC) were blocked, and then incubated with primary antibodies or isotype control antibodies (0.01-0.5 μg/ml) for 1 hr. […] Plates were washed and developed with TMB substrate (Clinical Science Products, Mansfield, Mass.) and the absorbance (OD) was read at 450 nm (subtracting the background absorbance at 650 nm) with a Molecular Devices SpectraMAX 190 plate reader (Molecular Devices, Sunnyvale, Calif.).
# Data analysis. Mean OD values for each parameter were calculated from triplicate samples per experiment. […]
# [3] = 24 hr SAg stimulation, non-toxic concentrations
Molecule,"activity in the SAg system [1, 3]",activity in the SAg system [1],also measured
CCCCOc1cc(CC2CNC(=O)N2)ccc1OC (stereo not drawn) [Ro-20-1274],active,–,–
Cc1ccc(-c2nn(C(C)(C)C)c3ncnc(N)c23)cc1 [PP1],–,active,–
Nc1nccc(-c2c(-c3ccc(F)cc3)ncn2C2CCNCC2)n1 [SB220025],retain activity,–,–
COc1cccc(-c2cc(=O)c3ccccc3o2)c1N [PD098059],–,–,activity in the 3C (endothelial inflammation) system [2]: induces a characteristic response profile
O=c1cc(-c2ccc(O)cc2)oc2cc(O)cc(O)c12 [apigenin],–,–,activity in the 3C (endothelial inflammation) system [2]: induces a characteristic response profile
COc1ccc(C2CNC(=O)C2)cc1OC1CCCC1 (stereo not drawn) [rolipram],active,–,–
CO[C@H]1C[C@@H]2CC[C@@H](C)[C@@](O)(O2)C(=O)C(=O)N2CCCC[C@H]2C(=O)O[C@H]([C@H](C)C[C@@H]2CC[C@@H](O)[C@H](OC)C2)CC(=O)[C@H](C)/C=C(\C)[C@@H](O)[C@@H](OC)C(=O)[C@H](C)C[C@H](C)/C=C/C=C/C=C/1C [rapamycin],active,–,–
IL-1 receptor antagonist: Recombinant human IL-1ra,–,detects inhibition,–
CC(C)(C)n1nc(-c2ccc(Cl)cc2)c2c(N)ncnc21 [PP2],–,active,–
CC(C)N(CCC(=O)c1ccc2ccccc2c1)Cc1ccccc1 [ZM39923],active,–,–
COc1cc2ncnc(Nc3ccc(O)cc3)c2cc1OC [WHI-P131],active,–,–
B1,–,active,–
